Assay results published in patent US8748426B2, “Inhibitors of diacylglycerol acyl transferase” (Piramal Enterprises Limited, priority 2009, dated 2014).

Molecular target: T1, hDGAT1 (Homo sapiens, UniProt O75907)
T1 sequence (O75907 1-488): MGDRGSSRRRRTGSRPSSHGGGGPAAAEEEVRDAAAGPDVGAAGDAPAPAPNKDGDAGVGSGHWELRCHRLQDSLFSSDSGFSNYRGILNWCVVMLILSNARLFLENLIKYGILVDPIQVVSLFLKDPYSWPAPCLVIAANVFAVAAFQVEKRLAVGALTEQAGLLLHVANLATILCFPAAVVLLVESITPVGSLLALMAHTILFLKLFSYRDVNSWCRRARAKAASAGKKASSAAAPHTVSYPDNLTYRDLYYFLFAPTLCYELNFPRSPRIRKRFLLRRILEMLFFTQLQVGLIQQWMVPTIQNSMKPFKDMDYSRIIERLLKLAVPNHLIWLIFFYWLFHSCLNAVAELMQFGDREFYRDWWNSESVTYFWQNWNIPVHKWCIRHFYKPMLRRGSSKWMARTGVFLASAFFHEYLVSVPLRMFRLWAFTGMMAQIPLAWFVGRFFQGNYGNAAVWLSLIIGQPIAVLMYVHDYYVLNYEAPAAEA
Assay: In-vitro DGAT1 assay (14C oleoyl CoA, hDGAT1 microsomes from Sf9 cells)
Settings: at 1 μM

% Inhibition of hDGAT1 | Compound
+ (10-50% Inhibition) | (S)-2-(5-(4-(3-(2-Fluorophenyl)thioureido)phenyl)-1-oxoisoindolin-2-yl)-3-methylbutanoic acid [Example 257]
+ (10-50% Inhibition) | O=C(Nc1ccc(-c2ccc3c(c2)C(=O)N([C@H]2CC[C@H](C(=O)O)CC2)C3)cc1)c1ccc(Cl)cc1 [Example 561, (1r,4r)-4-(6-(4-(4-Chlorobenzamido)phenyl)-1-oxoisoindolin-2-yl)cyclohexane carboxylic acid]

Same assay, conditions: read-out: % Inhibition of hDGAT1

inhibition at 1 µM | Compound
> 50% | CCCCCc1ccc(C(=O)Nc2ccc(-c3ccc4c(c3)C(=O)N([C@H](C(=O)O)C(C)C)C4)c(Cl)c2)cc1 [Example 486, (S)-2-(6-(2-Chloro-4-(4-pentylbenzamido)phenyl)-1-oxoisoindolin-2-yl)-3-methylbutanoic acid]
10 to 50% | CC(C)[C@@H](C(=O)O)N1Cc2cc(-c3ccc(NS(=O)(=O)Cc4ccccc4)cc3)ccc2C1=O [Example 301, (S)-3-Methyl-2-(1-oxo-5-(4-(phenylmethylsulfonamido)phenyl)isoindolin-2-yl)butanoic acid]
10 to 50% | CC(C)[C@@H](C(=O)O)N1Cc2ccc(-c3ccc(NC(=O)c4cccc(C(F)(F)F)c4F)cc3)cc2C1=O [Example 194, (S)-2-(6-(4-(2-Fluoro-3-(trifluoromethyl)benzamido)phenyl)-1-oxoisoindolin-2-yl)-3-methylbutanoic acid]
> 50% | CC(C)[C@@H](C(=O)O)N1Cc2ccc(-c3ccc(NC(=O)Nc4ccc(F)c(F)c4)c(F)c3)cc2C1=O [Example 440, (S)-2-(6-(4-(3-(3,4-Difluorophenyl)ureido)-3-fluorophenyl)-1-oxoisoindolin-2-yl)-3-methylbutanoic acid]
> 50% | Cc1ccc(F)c(C(=O)Nc2ccc(-c3ccc4c(c3)C(=O)N([C@H](C(=O)O)C(C)C)C4)cc2)c1F [Example 166, (S)-2-(6-(4-(2,6-Difluoro-3-methylbenzamido)phenyl)-1-oxoisoindolin-2-yl)-3-methylbutanoic acid]
10 to 50% | Cc1cc(C)c(C(=O)Nc2ccc(-c3ccc4c(c3)C(=O)N([C@H](C(=O)O)C(C)C)C4)cc2)c(C)c1 [Example 154, (S)-3-Methyl-2-(1-oxo-6-(4-(2,4,6-trimethylbenzamido)phenyl)isoindolin-2-yl)butanoic acid]
> 50% | C[C@@H](C(=O)O)N1Cc2cc(-c3ccc(NC(=O)Nc4cccc(C(F)(F)F)c4)cc3)ccc2C1=O [Example 367, (S)-2-(1-Oxo-5-(4-(3-(3-(trifluoromethyl)phenyl)ureido)phenyl)isoindolin-2-yl)propanoic acid]
10 to 50% | CC(C)[C@@H](C(=O)O)N1Cc2cc(-c3ccc(NC(=S)Nc4ccc(Cl)cc4)cc3)ccc2C1=O [Example 265, (S)-2-(5-(4-(3-(4-Chlorophenyl)thioureido)phenyl)-1-oxoisoindolin-2-yl)-3-methylbutanoic acid]
> 50% | CCCCCc1ccc(C(=O)Nc2ccc(-c3ccc4c(c3)C(=O)N([C@H](C(=O)O)C(C)C)C4)nn2)cc1 [Example 500, (S)-3-Methyl-2-(1-oxo-6-(6-(4-pentylbenzamido)pyridazin-3-yl)isoindolin-2-yl)butanoic acid]
> 50% | CC(C)[C@@H](C(=O)O)N1Cc2ccc(-c3ccc(NC(=O)c4ccc5c(c4)C(C)(C)CCC5(C)C)cc3)cc2C1=O [Example 176, (S)-3-Methyl-2-(1-oxo-6-(4-(5,5,8,8-tetramethyl-5,6,7,8-tetrahydronaphthalene-2-carboxamido)phenyl)isoindolin-2-yl)butanoic acid]
10 to 50% | COc1cc(NC(=O)c2ccc(C(C)(C)C)cc2)ccc1-c1ccc2c(c1)C(=O)N([C@H](C(=O)O)C(C)C)C2 [Example 456, (S)-2-(6-(4-(4-tert-Butylbenzamido)-2-methoxyphenyl)-1-oxoisoindolin-2-yl)-3-methylbutanoic acid]
> 50% | CC(C)[C@@H](C(=O)O)N1Cc2ccc(-c3ccc(NC(=S)Nc4cccc(C(F)(F)F)c4)cc3)cc2C1=O [Example 76, (S)-3-Methyl-2-(1-oxo-6-(4-(3-(3-(trifluoromethyl)phenyl)thioureido)phenyl)isoindolin-2-yl)butanoic acid]
> 50% | CC(C)[C@@H](C(=O)O)N1Cc2ccc(-c3ccc(NC(=O)c4ccc5c(c4)OCO5)cc3)cc2C1=O [Example 128, (S)-2-(6-(4-(Benzo[d][1,3]dioxole-5-carboxamido)phenyl)-1-oxoisoindolin-2-yl)-3-methylbutanoic acid]
> 50% | O=C(Nc1ccc(-c2ccc3c(c2)C(=O)N(C2(C(=O)O)CC2)C3)cc1)c1ccc(Cl)cc1 [Example 588, 1-(6-(4-(4-Chlorobenzamido)phenyl)-1-oxoisoindolin-2-yl)cyclopropane carboxylic acid]
> 50% | CC(C)(C)c1ccc(C(=O)Nc2ccc(-c3ccc4c(c3)C(=O)N(C(C)(C)C(=O)O)C4)cc2)cc1 [Example 519, 2-(6-(4-(4-(tert-Butyl)benzamido)phenyl)-1-oxoisoindolin-2-yl)-2-methyl propanoic acid]
> 50% | CC(C)[C@@H](C(=O)O)N1Cc2ccc(-c3ccc(NC(=O)c4ccc(-c5cnco5)cc4)cc3)cc2C1=O [Example 622, (S)-3-Methyl-2-(6-(4-(4-(oxazol-5-yl)benzamido)phenyl)-1-oxoisoindolin-2-yl)butanoic acid]
10 to 50% | CC(C)[C@@H](C(=O)O)N1Cc2ccc(-c3ccc(NC(=O)Nc4ccc(F)c(F)c4)cc3)cc2C1=O [Example 32, (S)-2-(6-(4-(3-(3,4-Difluorophenyl)ureido)phenyl)-1-oxoisoindolin-2-yl)-3-methylbutanoic acid]
10 to 50% | CC(C)[C@@H](C(=O)O)N1Cc2ccc(-c3ccc(NC(=O)c4ccc(F)cc4C(F)(F)F)cc3)cc2C1=O [Example 198, (S)-2-(6-(4-(4-Fluoro-2-(trifluoromethyl)benzamido)phenyl)-1-oxoisoindolin-2-yl)-3-methylbutanoic acid]
10 to 50% | CC(C)[C@@H](C(=O)O)N1Cc2ccc(-c3ccc(NC(=O)c4ccc(Cl)cc4)cc3F)cc2C1=O [Example 606, (S)-2-(6-(4-(4-Chlorobenzamido)-2-fluorophenyl)-1-oxoisoindolin-2-yl)-3-methyl butanoic acid]
> 50% | O=C(Nc1ccc(-c2ccc3c(c2)C(=O)N(C2CCCC(C(=O)O)C2)C3)cc1)c1cccc(Cl)c1 (stereo not drawn) [Example 547, 3-(6-(4-(3-Chlorobenzamido)phenyl)-1-oxoisoindolin-2-yl)cyclohexane carboxylic acid]

Compound | inhibition at 1 µM
CCCCOc1ccc(C(=O)Nc2cnc(-c3ccc4c(c3)C(=O)N([C@H](C(=O)O)C(C)C)C4)cn2)cc1 [Example 509, (S)-2-(6-(5-(4-Butoxybenzamido)pyrazin-2-yl)-1-oxoisoindolin-2-yl)-3-methylbutanoic acid] | > 50%
CCCCOc1ccc(C(=O)Nc2ccc(-c3ccc4c(c3)C(=O)N([C@H](C(=O)O)C(C)C)C4)c(OC)c2)cc1 [Example 460, (S)-2-(6-(4-(4-Butoxybenzamido)-2-methoxyphenyl)-1-oxoisoindolin-2-yl)-3-methylbutanoic acid] | 10 to 50%
